Test results published in patent publication US8415156B2, “Recombinant laminin-521” (Biolamina AB, priority 2010, dated 2013).

Columns and labels:
hES cells = assay: Embryoid body formation; type: cell-based, human; details: same three cultures as teratoma test
Method: ES cells from LN-521 coated cell culture dishes were exposed to TrypLE™ Select for one minute at 37° C., 5% CO2, washes two times with a medium, broken into large pieces and cultured in suspension in low adhesion plates. The medium used for this was Knockout DMEM (GIBCO Invitrogen Corporation) supplemented with 2 mM L-glutamine, 20% fetal calf serum (GIBCO Invitrogen Corporation), 0.1 mM β-mercaptoethanol (GIBCO Invitrogen Corporation) and 1% non-essential amino acids (GIBCO Invitrogen Corporation). After 1-2 weeks in suspension, the embryoid bodies were transferred onto gelatin coated tissue cell culture 96-well plates (Sarstedt), cultured for 1-2 weeks, then fixed, stained with antibodies against markers of all three embryonic germ line layers (smooth muscle actin, MAP-2 and α-fetoprotein) and analyzed as described above for immunofluorescence.

[1] = tested on: human embryonic stem cell; assay: Survival after dissociation into single cell suspension (description); type: cell-based; details: O3 medium; 30 Kcells/cm^2; precoated dishes
Excerpt: In other aspects, the present disclosure provides a new material, isolated laminin-521, which permits human embryonic stem cell survival after dissociation into single cell suspension. The stem cells were dissociated into single cell suspension by Trypsin-EDTA treatment, pelleted by centrifugation, resuspended into O3 medium, filtered through a 40 μm sieve, and plated at a density of 30 Kcells/cm^2 on cell culture dishes precoated by either isolated laminin-521, laminin-511, or Matrigel. After one day in culture, the cells plated on Matrigel died, as is known in the art.

[2] = tested on: Oct4, Nanog, SSEA4; PAX6, SOX17, SOX7; assay: Expression of pluripotency and differentiation markers (Example 2); type: cell-based, human; details: compared with Matrigel passed as small clumps
Method: For immunofluorescence studies, ES cells were cultured and fixed in 8-well slide chambers (BD Biosciences) or 96-well plate wells by 4% paraformaldehyde, permeabilized by 0.1% Triton-X and blocked by 10% bovine fetal serum (GIBCO Invitrogen Corporation) in phosphate-saline buffer (PBS) containing 0.1% Tween-20 (Sigma-Aldrich, St. Louis, www.sigmaaldrich.com) for one hour. Incubation with primary antibody was performed for 1.5 hours at room temperature. Incubation with secondary antibody and 4,6-diamidino-2-phenylindole (DAPI, Molecular Probes) was performed for 40 minutes. Between incubations, the specimens were washed with 0.1% Tween-20 in PBS buffer three to five times. Specimens were preserved in a fluorescence mounting medium (Dako, Glostrup, Denmark, http://www.dako.com), and observed under a fluorescence microscope (Leica, Heerbrugg, Switzerland, http://www.leica.com).
Total RNA was isolated using Absolutely RNA Microprep Kit (Stratagene, La Jolla Calif., www.stratagene.com) according to the manufacturer's instructions. cDNA was synthesized using 0.2 μg of total RNA in 20 μl reaction mixture, containing oligo(dT)12-18 primers and Superscript II reverse transcriptase (GIBCO Invitrogen Corporation), according to the manufacturer's instructions. […] All data was analyzed with 7300 System SDS Software v 1.4. […]

HS181 cells = assay: Single cell survival / cell adhesion, 1 day after plating (Example 1); type: cell-based, human
Method: Human ES cells were cultured on r-laminin-521-coated laboratory dishes in chemically defined O3 medium (described in Rodin et al., Nature Biotechnol., vol. 28, pp. 611-615 (2010)) at 37° C. in 5% CO2. Cells were routinely passed once every 10-12 days by exposure to Trypsin-EDTA solution (GIBCO Invitrogen) for 5 minutes at 37° C. They were then gently pipetted to break into single-cell suspension and defined trypsin inhibitor (GIBCO Invitrogen) was added. The cell suspension was centrifuged […], the supernatant discarded, the cell pellet resuspended in prewarmed O3 medium, and cells were then passed through a 40 μm sieve. After that cells were plated on new r-laminin-521-coated dishes at a concentration 30 Kcells/cm^2 (1:25-1:30 split ratio). Cells were fed once a day with fresh medium prewarmed in an incubator for 1 hour, except for the first day after a passage, when only a few drops of fresh medium were added. Control cells of the same line were cultured on Matrigel (BD Biosciences) in O3 medium as described in Rodin et al., Nature Biotechnol., vol. 28, pp. 611-615 (2010). Control cells were passaged in pieces.
Ninety-six-well tissue cell culture plates were coated overnight at 4° C. with sterile solutions of the ECM proteins mouse LN-111 (Invitrogen), human recombinant LN-511, and human recombinant LN-521, all at a concentration of 30 μg/ml (5 μg/cm^2). For control cells, BD Matrigel™ hESC qualified (BD Biosciences) was used according to the manufacturer's instructions.
The assay was performed as described (Extracellular Matrix Protocols, 2000). Briefly, 96-well plates were coated by extracellular matrix proteins as described above and blocked by O3 medium containing bovine serum albumin. The ES cells were plated at a cell density of 600 cell/mm^2 upon extracellular matrix-coated plates and were left to adhere for either 1 hour or 1 day at the cell incubator. Non-adherent cells were washed away, and adherent cells were fixed for 20 min by 5% glutaraldehyde, stained by 0.1% Crystal Violet.

[3] = tested on: hES cell lines HS181 and H1; assay: Karyotyping; type: cell-based, human; details: HS181 12 passages and H1 10 passages in O3; H1 7 passages in TeSR2
Method: Karyotyping of the cell lines was carried out using standard Q-banding techniques. Samples of cells were treated with colcemid KaryoMAX (0.1 μg/ml; Gibco Invitrogen Corporation) for up to 4 hours, followed by dissociation with Trypsin/EDTA solution (Gibco Invitrogen Corporation). The cells were pelleted via centrifugation and re-suspended in pre-warmed 0.0375 M KCl hypotonic solution and incubated for 10 minutes. Following centrifugation, the cells were resuspended in fixative (3:1 methanol:acetic acid). Metaphase spreads were prepared on glass microscope slides and G-banded by brief exposure to trypsin and stained with 4:1 Gurr's/Leishmann's stain (Sigma-Aldrich Co.). A minimum of 10 metaphase spreads were analyzed and additional 20 were counted.

Substance: LN-521: protein formed by joining α5, β2 and γ1 chains together; human recombinant, produced in HEK293 cells
- differentiation in vitro: embryoid bodies expressing markers of mesoderm, ectoderm and endoderm (hES cells): retained the competence to form embryoid bodies
- survival of hES cells plated from single cell suspension after one day in culture [1]: survived and started to proliferate
- expression levels of pluripotency markers Oct4, Nanog, and SSEA4 [2]: stable expression levels
- adhesion at 1 day without additives compared with dishes including the ROCK inhibitor (HS181 cells; 1 day after plating): similar
- adhesion at 1 day relative to Matrigel without additives (HS181 cells; 1 day after plating, without additives): 20 times
- adhesion at 1 day without additives compared with dishes including the ROCK inhibitor (HS181 cells; 1 day after plating, listed as LN-532): no ROCK inhibitor is necessary
- single cell survival / cells remaining attached 24 hours after plating (HS181 cells; O3 medium without any additives, completely dissociated HS181 cells): survived
- karyotype [3]: normal
